Results taken from PubChem BioAssay (NCI).
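Grown in 96-well plates, cells were treated for 48 hours with each compound at five concentrations. Insufficient inhibition: endpoint recorded as highest concentration tested. GI50 is the concentration that inhibits growth by half. TGI denotes the concentration required for complete inhibition of growth.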

How the values were obtained:
Assay in all cases: DTP human tumour cell line panel, 48 h
[1] = tested on: HL-60(TB) leukemia
[2] = tested on: CCRF-CEM leukemia
[3] = tested on: NCI-H226 lung
[4] = tested on: K-562 leukemia
[5] = tested on: COLO 205 colon
[6] = tested on: SF-295 CNS
[7] = tested on: SW-620 colon
[8] = tested on: HOP-92 NSCLC
[9] = tested on: MOLT-4 leukemia
[10] = tested on: U251 CNS
[11] = tested on: IGROV1 ovarian
[12] = tested on: A549 NSCLC
[13] = tested on: LOX IMVI melanoma
[14] = tested on: SNB-19 CNS
[15] = tested on: OVCAR-3 ovarian
[16] = tested on: HCT-116 colon
[17] = tested on: MDA-MB-231 breast
[18] = tested on: NCI-H522 lung
[19] = tested on: TK-10 renal
[20] = tested on: MCF7 breast
[21] = tested on: HCC-2998 colon
[22] = tested on: MALME-3M melanoma
[23] = tested on: OVCAR-4 ovarian
[24] = tested on: T-47D breast
[25] = tested on: RPMI-8226 leukemia
[26] = tested on: A498 renal
[27] = tested on: PC-3 prostate
[28] = tested on: MDA-MB-435
[29] = tested on: OVCAR-8 ovarian
[30] = tested on: HS 578T breast
[31] = tested on: NCI/ADR-RES ovarian
[32] = tested on: SK-MEL-28 melanoma
[33] = tested on: UO-31 renal
[34] = tested on: RXF 393 renal
[35] = tested on: CAKI-1 renal
[36] = tested on: HT29 colon
[37] = tested on: SK-MEL-5 melanoma
[38] = tested on: HCT-15 colon
[39] = tested on: KM12 colon
[40] = tested on: SNB-75 CNS
[41] = tested on: EKVX NSCLC
[42] = tested on: SF-539 CNS
[43] = tested on: UACC-257 melanoma
[44] = tested on: 786-0 renal
[45] = tested on: SN12C renal
[46] = tested on: NCI-H460 lung
[47] = tested on: OVCAR-5 ovarian
[48] = tested on: DU-145 prostate
[49] = tested on: ACHN renal
[50] = tested on: SR leukemia
[51] = tested on: UACC-62 melanoma
[52] = tested on: SK-MEL-2 melanoma
[53] = tested on: SF-268 CNS
[54] = tested on: NCI-H23 lung
[55] = tested on: HOP-62 NSCLC
[56] = tested on: M14 melanoma
[57] = tested on: SK-OV-3 ovarian

For Oc1c(Cl)c(Cl)c(Cl)c(Cl)c1Cl, the TGI [1] was 36.9 µM, the TGI [2] was 48.3 µM and the TGI [3] was 56.9 µM.
With C/C(CC(C)(C)N1CC1)=N\NC(=O)Nc1cccc2ccccc12 the GI50 [4] was 3.56 µM, the TGI [4] was 24.5 µM and the GI50 [5] was 2.39 µM. For the same compound, the TGI [5] was 7.19 µM, the GI50 [6] was 7.01 µM and the TGI [6] was 35.5 µM. The GI50 [7] was 2.89 µM, the TGI [7] was 12.4 µM and the GI50 [8] was 1.65 µM. The TGI [8] was 6.99 µM, the GI50 [9] was 2.59 µM and the TGI [9] was 6.29 µM. For the same compound, the GI50 [10] was 3.52 µM, the TGI [10] was 14.4 µM and the GI50 [11] was 4.19 µM. It also gave a TGI [11] of 36.9 µM, a GI50 [1] of 2.04 µM and a TGI [1] of 5 µM. It also gave a GI50 [12] of 3.53 µM, a TGI [12] of 14.2 µM and a GI50 [13] of 3.13 µM. For the same compound, the TGI [13] was 13.3 µM, the GI50 [14] was 5.14 µM and the TGI [14] was 18.1 µM. It also gave a GI50 [2] of 2.37 µM, a TGI [2] of 20.6 µM and a GI50 [15] of 2.32 µM. For the same compound, the TGI [15] was 5.92 µM, the GI50 [16] was 3.32 µM and the TGI [16] was 11.5 µM. It also gave a GI50 [17] of 3.25 µM, a TGI [17] of 9.42 µM and a GI50 [18] of 2.04 µM. For the same compound, the TGI [18] was 5.36 µM, the GI50 [19] was 2.81 µM and the TGI [19] was 7.23 µM. For the same compound, the GI50 [20] was 2.42 µM, the TGI [20] was 11.2 µM and the GI50 [21] was 4.81 µM. It also gave a TGI [21] of 17 µM, a GI50 [22] of 4.08 µM and a TGI [22] of 18.8 µM. For the same compound, the GI50 [23] was 4.23 µM, the TGI [23] was 15.9 µM and the GI50 [24] was 4.35 µM. It also gave a TGI [24] of 17.3 µM, a GI50 [25] of 2.71 µM and a TGI [25] of 8.74 µM. The GI50 [26] was 2.55 µM, the TGI [26] was 9.5 µM and the GI50 [27] was 5.32 µM. For the same compound, the TGI [27] was 23.2 µM, the GI50 [28] was 6.19 µM and the TGI [28] was 19.9 µM. For the same compound, the GI50 [29] was 2.64 µM, the TGI [29] was 13.4 µM and the GI50 [30] was 2.45 µM. For the same compound, the TGI [30] was 24.7 µM, the GI50 [31] was 3.67 µM and the TGI [31] was 22.4 µM. It also gave a GI50 [32] of 7.07 µM, a TGI [32] of 19.8 µM and a GI50 [33] of 2.58 µM. It also gave a TGI [33] of 12.2 µM, a GI50 [34] of 2.08 µM and a TGI [34] of 5.46 µM. For the same compound, the GI50 [35] was 3.73 µM, the TGI [35] was 13.2 µM and the GI50 [36] was 3.5 µM. It also gave a TGI [36] of 13.7 µM, a GI50 [37] of 3.19 µM and a TGI [37] of 12.2 µM. It also gave a GI50 [38] of 3.24 µM, a TGI [38] of 17.4 µM and a GI50 [39] of 4.13 µM. For the same compound, the TGI [39] was 15.7 µM, the GI50 [40] was 2.62 µM and the TGI [40] was 13.8 µM. The GI50 [41] was 5.84 µM, the TGI [41] was 19.9 µM and the GI50 [42] was 3.35 µM. For the same compound, the TGI [42] was 15.7 µM, the GI50 [43] was 4.09 µM and the TGI [43] was 16.2 µM. It also gave a GI50 [44] of 3.04 µM, a TGI [44] of 9.87 µM and a GI50 [3] of 3.51 µM. It also gave a TGI [3] of 14.9 µM, a GI50 [45] of 5.76 µM and a TGI [45] of 77.9 µM. It also gave a GI50 [46] of 2.86 µM, a TGI [46] of 10 µM and a GI50 [47] of 6.04 µM. It also gave a TGI [47] of 23 µM, a GI50 [48] of 3.07 µM and a TGI [48] of 9.85 µM. It also gave a GI50 [49] of 2.99 µM, a TGI [49] of 11.8 µM and a GI50 [50] of 2.02 µM. The TGI [50] was 6.13 µM, the GI50 [51] was 4.06 µM and the TGI [51] was 15.8 µM. For the same compound, the GI50 [52] was 2.24 µM, the TGI [52] was 5.45 µM and the GI50 [53] was 3.72 µM. For the same compound, the TGI [53] was 16.2 µM, the GI50 [54] was 3.78 µM and the TGI [54] was 21.3 µM. It also gave a GI50 [55] of 4.12 µM, a TGI [55] of 15.8 µM and a GI50 [56] of 4.25 µM. For the same compound, the TGI [56] was 15.2 µM.
CCOC(=O)C(NC(=O)c1cccc(Cl)c1)(Nc1ccc(S(=O)(=O)Nc2cc(C)nc(C)n2)cc1)C(F)(F)F (centres undefined) was tested, and the TGI [5] was > 100 µM, the TGI [6] was > 100 µM and the TGI [7] was > 100 µM. For the same compound, the TGI [8] was > 100 µM, the TGI [9] was > 100 µM and the TGI [10] was > 100 µM. For the same compound, the TGI [11] was > 100 µM, the TGI [1] was > 100 µM and the TGI [12] was > 100 µM. The TGI [13] was > 100 µM, the TGI [14] was > 100 µM and the TGI [2] was > 100 µM. For the same compound, the TGI [15] was > 100 µM, the TGI [57] was > 100 µM and the TGI [16] was > 100 µM. For the same compound, the TGI [17] was > 100 µM, the TGI [18] was > 100 µM and the TGI [19] was > 100 µM. The TGI [20] was > 100 µM, the TGI [21] was > 100 µM and the TGI [22] was > 100 µM. For the same compound, the TGI [23] was > 100 µM, the TGI [24] was > 100 µM and the TGI [25] was > 100 µM. For the same compound, the TGI [26] was > 100 µM, the TGI [27] was > 100 µM and the TGI [28] was > 100 µM. The TGI [29] was > 100 µM, the TGI [30] was > 100 µM and the TGI [31] was > 100 µM. For the same compound, the TGI [32] was > 100 µM, the TGI [33] was > 100 µM and the TGI [35] was > 100 µM. The TGI [36] was > 100 µM, the TGI [37] was > 100 µM and the TGI [38] was > 100 µM. For the same compound, the TGI [39] was > 100 µM, the TGI [40] was > 100 µM and the TGI [41] was > 100 µM. For the same compound, the TGI [42] was > 100 µM, the TGI [43] was > 100 µM and the TGI [44] was > 100 µM. For the same compound, the TGI [3] was > 100 µM, the TGI [45] was > 100 µM and the TGI [46] was > 100 µM. The TGI [47] was > 100 µM, the TGI [48] was > 100 µM and the TGI [49] was > 100 µM. For the same compound, the TGI [50] was > 100 µM, the TGI [52] was > 100 µM and the TGI [53] was > 100 µM. For the same compound, the TGI [54] was > 100 µM, the TGI [55] was > 100 µM and the TGI [56] was > 100 µM.
